Test results: ChEMBL document CHEMBL1151398, “New taxanes from Taxus brevifolia” (1982)

Columns and labels:
KB = assay: Cytotoxicity against human KB cells; format: functional; design: concentration or dose not given beside the values
Astrocyte = assay: Astrocyte reversal activity in astrocytes; format: functional; details: read-out: ED50 (the source's name)

SMILES	EC50 (Astrocyte)	Activity (KB)
CC(=O)O[C@H]1C(=O)[C@]2(C)[C@@H](OC(C)=O)C[C@H]3OC[C@@]3(OC(C)=O)[C@H]2[C@H](OC(=O)c2ccccc2)[C@]2(O)C[C@H](OC(=O)[C@H](OC(C)=O)[C@@H](NC(=O)c3ccccc3)c3ccccc3)C(C)=C1C2(C)C	0.03 µg/mL	16%
CC(=O)O[C@@]12CO[C@@H]1C[C@H](O)[C@@]1(C)C(=O)[C@H](O)C3=C(C)[C@@H](O)C[C@@](O)([C@@H](OC(=O)c4ccccc4)[C@H]21)C3(C)C	1 µg/mL	16%

Further lines, with some results ahead:

EC50 (Astrocyte)	SMILES	Activity (KB)
< 0.01 µg/mL	CC(=O)O[C@H]1C(=O)[C@@]2(C)[C@H]([C@H](OC(=O)c3ccccc3)[C@]3(O)C[C@H](OC(=O)[C@H](O)[C@@H](NC(=O)c4ccccc4)c4ccccc4)C(C)=C1C3(C)C)[C@]1(OC(C)=O)CO[C@@H]1C[C@@H]2O [PACLITAXEL]	31%
< 0.01 µg/mL	CC(=O)O[C@H]1C[C@H]2OC[C@@]2(OC(C)=O)[C@H]2[C@H](OC(=O)c3ccccc3)[C@]3(O)C[C@H](OC(=O)[C@H](OC(C)=O)[C@@H](NC(=O)c4ccccc4)c4ccccc4)C(C)=C([C@@H](O)C(=O)[C@]12C)C3(C)C	16%
28 µg/mL	C=C1[C@@H](O)C[C@H](OC(C)=O)[C@@]2(C)[C@@H](OC(C)=O)[C@H](OC(C)=O)C3=C(C)[C@@H](OC(C)=O)C[C@@H]([C@@H](OC(C)=O)[C@H]12)C3(C)C [DECINNAMOYLTAXININE J]	16%
